How the values were obtained:
[1] = tested on: mitochondrial disease patient cells; details: cited from earlier work
rodent = details: single dose; cited from earlier work
healthy participants = experiment: Phase I trial NCT03856827, healthy participants aged 18 to 62: EEG; type: in vivo, human
Procedure: Electroencephalography (EEG) is a technique that measures electrical activity in the brain (brain electrophysiology) by using electrodes places on the scalp. EEG-power spectral signals may be analyzed at different frequencies or frequency bands. They were analyzed at the following frequency bands in two prior phase 1 clinical trials with Compound I described below: Delta-1-4 Hz (typically associated with sleep), Theta-4-7.5 Hz (associated with waking/falling asleep, some association with cognition), Alpha-8-12 Hz (associated with passive wakefulness, and with cognitive processing), Beta-12-25 Hz (associated with alertness and concentration) and Gamma-25-45 Hz (associated with higher cognitive function). qEEG stands for quantitative electroencephalography. […]
During EEG-ERP experiments, several key waveforms may be evaluated following a stimulus: N200 (associated with stimulus identification and distinction), P300 (associated with selective attention, information processing and cognitive speed/capacity), P200 (associated with aspects of selective attention or stimulus encoding), P50 (assciated with sensory gating, or the reduced neurophysiological response to redundant stimuli), and N100 (associated with early perceptal processes). […]

[2] = Two Phase 1 studies in healthy adults aged 18 to 79: safety, PK, PD; type: in vivo, human
Description: The 15-mg Compound I QD dose was selected based on safety, tolerability, PK, and PD data from repeated dosing at this level in two Phase 1 studies conducted in healthy adults aged 18 to 79 years. […] Across the Phase 1 studies, no safety concerns were identified. […] No impact on cognitive performance measures was observed.

rats [3] = details: cited from earlier work
rats [4] = details: cited from earlier work; remark: listed apart in the source
[5] = tested on: participants diagnosed with MELAS; experiment: MELAS study: patient-reported outcomes (PGIC, MFIS, PROMIS); type: in vivo, human
Description: The Patient-reported Outcomes Measurement Information System (PROMIS) Item Bank v2.0—Cognitive Function is a self-administered questionnaire that assesses multiple aspects of mental fatigue and cognitive function in the past 7 days prior to the administration of the questionnaire. It uses a Likert-type rating scale (eg, “Never” to “Very often”).
The Patient Global Impression of Change (PGIC) is a single-item questionnaire that assesses the participant's perception of change in his/her overall health status since the start of the study using a Likert-type rating scale (eg, “Very much improved” to “Very much worse”).
The Modified Fatigue Impact Scale (MFIS) is a self-administered questionnaire that assesses the impact of fatigue in terms of physical, cognitive, and psychosocial functioning over the past 4 weeks. Patients respond using a Likert-type rating scale. (eg, “Never” to “Almost always”).

[6] = tested on: participants diagnosed with MELAS; experiment: MELAS study: cerebral blood flow by arterial spin labeling (ASL); type: in vivo, human; details: 15 mg QD
Procedure: Two exploratory functional neuroimaging modalities, arterial spin labeling (ASL) and functional magnetic resonance imaging (fMRI), were used to measure the potential PD effects of Compound I in the brain. While ASL quantifies regional CBF during the resting state, fMRI is a relative measure based on the blood-oxygen-level-dependent (BOLD) effect and was conducted during both a resting state and during a visual stimulus to measure brain activity.
Each individual MRI scanning session took approximately 45 minutes (maximum of ˜1 hour).
This change was observed across all brain regions of interest. Effect size throughout this disclosure is defined as the means change from baseline in a particular parameter that is being measured, divided by the standard deviation. Effect sizes closer to 1 or −1 (positive or negative dependent on the direction of movement for the specific parameter, i.e. +0.8 to +1.0 or −0.8 to −1.0) are usually considered large. Effect sizes between 0.5 and 0.8 or −0.5 and −0.8 (positive or negative dependent on the direction of movement for the specific parameter) are usually considered moderate. Effect sizes closer to below 0.5 or −0.5 (positive or negative dependent on the direction of movement for the specific parameter) are usually considered small.

[7] = healthy elderly, 15 mg QD, after 14 days
[8] = healthy participants, 15 mg QD for up to 15 days

Fc1ccccc1Cc1nc(-c2nc(C(F)(F)F)n[nH]2)cn2ccnc12 [Compound I, zagociguat]
abundance of available adenosine triphosphate (ATP) ([1]; mitochondrial disease patient cells): increasing the abundance of available adenosine triphosphate (ATP)
expression levels of DDAH2 ([1]; patient cells): increased expression levels
expression levels of TFAM ([1]; patient cells): increased expression levels
fMRI-BOLD signals (rodent): increased fMRI-BOLD signals
levels of cGMP in the CNS (rodent): increased levels of cGMP in the CNS
qEEG gamma-band oscillatory power (rodent): elevated qEEG gamma-band oscillatory power
ERP P300 amplitude (healthy participants; QD dosing, healthy participants aged 18 to 62): increase in amplitude with increasing dose level
alpha power (healthy participants; day 14, all dosage levels tested, compared to placebo): Improvements in alpha power
PK data, dose dependence ([2]; Phase 1 studies): linear and dose-dependent
PK data, effect of food ([2]; Phase 1 studies): not impacted by food
cognitive performance measures [2, 7]: No impact
neurophysiological parameters by EEG [2, 7]: modest impacts
SAEs [2, 8]: no SAEs reported
discontinuations due to AEs [2, 8]: no discontinuations due to AEs
severity of AEs [2, 8]: mild or moderate
gamma power in combination with donepezil (rats [3]; 10 mg/kg orally + 1 mg/kg donepezil, 1-2 hours post-dose): further increased
qEEG gamma oscillations / gamma power compared to vehicle dosing (rats [3]; oral suspension): increasing gamma oscillations
gamma power (rats [3]; orally at 10 mg/kg): increased gamma power
brain metabolite NAA+NAAG deficits (rats [4]; chronic dosing): reversed
dendritic spine density (rats [4]; chronic dosing): improved dendritic spine density
hippocampal long term potentiation (LTP) (rats [4]; chronic dosing): restored
behavioral task performance (rats [4]; pharmacologically impaired rats): improved behavioral task performance
neurotrophic factors pCREB and BDNF (rats [4]; rat, in vivo): increased neurotrophic factors
participants reporting improvement in their disease (PGIC) ([5]; 8 participants): Three of the 8
participants reporting no change in their disease (PGIC) ([5]; 8 participants): 4
participants reporting their disease as much worse (PGIC) ([5]; 8 participants): 1
changes in MFIS and PROMIS at the study level ([5]; Day 29): not observed
CBF on day 29 compared to baseline (day 1) ([6]; ASL, all brain regions of interest): increase of CBF
patients with increased CBF between day 1 and day 29 ([6]; individual patients): 5 of the 8
